Test results taken from paper PMC4648589, “Selection of an HLA-C*03:04-Restricted HIV-1 p24 Gag Sequence Variant Is Associated with Viral Escape from KIR2DL3+ Natural Killer Cells: Data from an Observational Cohort in South Africa” (PLoS Medicine, 2015).
“And” between values parts separate entries of the source, which are not always exact repeats. Equal entries are not always repeated.

Assays:
HLA-C*03:04 = HLA-C*03:04 (Homo sapiens, UniProt P10321, A176E/A330V/A97T/C25G/C350S/D114A/D33Y/E197K/L119I/L127V/L171W/L218V/M285V/M309V/M331V/P208H/Q277E/Q291P/R243W/R45H/S123Y/S140Y/S297R/S48A/T118I/T187L/T329A/T363A/V319A); assay: HLA-C*03:04 stabilization assay on peptide-pulsed TAP-blocked 721.221-ICP47-C*03:04 cells (W6/32 staining, flow cytometry); type: cell-based; details: for HLA-C*03:04 stabilization, mean relative fluorescence intensity (RFI): 100 μM peptide (saturating), 20 h at 26°C, gMFI with peptide divided by gMFI without peptide, mean ± SD of five experiments; for HLA-C*03:04 stabilization, mean relative fluorescence intensity, titration: serial peptide dilutions, non-saturating levels; for HLA-C*03:04 stabilization, mean relative fluorescence intensity, titration / HLA-C*03:04 stabilization, mean relative fluorescence intensity: mean ± SD; for HLA-C*03:04 stabilization, mean relative fluorescence intensity: n = 3
[1] = system: primary KIR2DL3+ NK cells; assay: Primary NK cell degranulation (CD107a) against peptide-pulsed 721.221-ICP47-C*03:04 cells, KIR2DL3+ subset; type: cell-based, human; details: for Relative degranulation of KIR2DL3+ NK cells (CD107a): % CD107a+ NK cells divided by % with GKL control peptide, effector:target 1:5, 6 h at 26°C, mean ± SEM, nine donors; for KIR2DL3+ NK Cell Activity (Mean ± SEM): ratio of percent CD107a+ KIR2DL3+ NK cells with variant peptide to that with wild-type peptide
Description: (§1) To determine activation of primary NK cells following exposure to target cells pulsed with different peptide variants, NK cell degranulation assays measuring CD107a expression were performed using freshly isolated and purified NK cells from nine healthy KIR2DL3+ individuals. Primary NK cells were isolated by incubating whole blood with RosetteSep Human NK Cell Enrichment Cocktail (Stemcell Technologies) for 20 min at room temperature, followed by Histopaque-1077 (Sigma) density gradient centrifugation. NK cells were rested overnight in RPMI medium 1640 (Sigma-Aldrich) supplemented with 10% heat-inactivated fetal calf serum (Sigma-Aldrich), 2,500 U/ml penicillin, 2,500 μg/ml streptomycin, […] L-glutamine (Cellgro), and 1.0 ng/ml IL-15 (Cellgro). Subsequently, NK cells (1 × 10^5) were co-incubated with peptide-pulsed 721.221-ICP47-C*03:04 cells (5 × 10^5) at an effector:target ratio of 1:5 in RPMI containing anti-human CD107a-PE-Cy7 (12.5 μl/ml) and monensin (1.5 μl/ml, BD GolgiStop). Cells were incubated for 6 h at 26°C in 5% CO2. Cells were stained with 7AAD, anti-CD3-PB, anti-CD16-BV785, anti-CD56-BV605, anti-CD14/19-BV510, anti-KIR2DL2/3-PE, and anti-KIR2DL3-APC, washed, fixed with 4% (w/v in PBS) paraformaldehyde (Affymetrix), and analyzed by multiparameter flow cytometry using a BD LSR II.
Flow cytometry data were analyzed using FlowJo software version 10.0.6 (Tree Star), and statistical analysis was performed using GraphPad Prism 6 (GraphPad Software). HLA stabilization values are shown as mean relative fluorescence intensity; error bars represent standard deviation (SD). Relative fluorescence intensity was calculated by dividing the geometric mean fluorescence intensity (gMFI) of HLA expression in the presence of the tested peptide by the gMFI of stained target cells without peptide added in each respective assay. Binding of KIR2DL3-Fc is represented as percent of KIR2DL3+ cells ± SD. […] A repeated-measures one-way ANOVA was subsequently performed to compare the responses between the wild-type group and the groups of the two variant peptides, for the KIR2DL3+ and KIR2DL3− NK cells, respectively. This was followed by a Tukey’s post hoc test. Each individual was sampled one time.

[2] = system: primary KIR2DL3− NK cells; assay: Primary NK cell degranulation (CD107a) against peptide-pulsed 721.221-ICP47-C*03:04 cells, KIR2DL3− subset; type: cell-based, human; details: % CD107a+ NK cells divided by % with GKL control peptide; effector:target 1:5, 6 h at 26°C; mean ± SEM, nine donors
Description: as §1
Flow cytometry data were analyzed using FlowJo software version 10.0.6 (Tree Star), and statistical analysis was performed using GraphPad Prism 6 (GraphPad Software). HLA stabilization values are shown as mean relative fluorescence intensity; error bars represent standard deviation (SD). Relative fluorescence intensity was calculated by dividing the geometric mean fluorescence intensity (gMFI) of HLA expression in the presence of the tested peptide by the gMFI of stained target cells without peptide added in each respective assay. Binding of KIR2DL3-Fc is represented as percent of KIR2DL3+ cells ± SD. […]

KIR2DL3 = molecular target: T1, KIR2DL3 (Homo sapiens, UniProt P43628); assay: KIR2DL3-Fc binding to peptide-pulsed 721.221-ICP47-C*03:04 cells (flow cytometry); details: for KIR2DL3-Fc binding, percent of cells binding KIR2DL3-Fc: cells pulsed with 100 μM peptide for 20 h, 2.5 μg KIR2DL3-Fc, 1 h on ice, mean ± SD of six independent experiments; for KIR2DL3-Fc Binding (Mean ± SD): ratio of percent KIR2DL3-Fc binding of variant peptide to that of wild-type peptide TGag303
T1 construct: purchased R&D Systems (KIR2DL3-Fc); Immudex (HLA-C*03:04/peptide monomers)
T1 sequence (P43628 with tags, fused parts or gaps limits assumed): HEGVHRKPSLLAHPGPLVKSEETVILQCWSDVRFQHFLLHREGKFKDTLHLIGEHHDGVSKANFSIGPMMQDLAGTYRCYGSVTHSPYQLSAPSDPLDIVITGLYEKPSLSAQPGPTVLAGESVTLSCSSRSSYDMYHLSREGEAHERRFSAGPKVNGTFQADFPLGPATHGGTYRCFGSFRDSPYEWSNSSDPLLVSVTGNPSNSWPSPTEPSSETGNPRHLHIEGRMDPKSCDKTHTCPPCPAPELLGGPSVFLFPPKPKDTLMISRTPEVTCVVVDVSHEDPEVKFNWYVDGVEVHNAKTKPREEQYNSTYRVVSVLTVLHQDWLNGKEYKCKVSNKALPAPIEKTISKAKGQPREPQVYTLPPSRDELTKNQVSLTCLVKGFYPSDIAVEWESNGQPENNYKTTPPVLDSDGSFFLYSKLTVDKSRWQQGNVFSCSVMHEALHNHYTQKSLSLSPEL

[3] = molecular target: biotinylated HLA-C*03:04 monomer refolded with … (human | not stated | HIV-1 clade C); assay: SPR; Biacore 3000; […]) 10 μg/ml in PBS, 60 μl at 20 μl/min; HBS-EP; 25°C; […]
[4] = 0.1 μM peptide (non-saturating)

Chain of recombinant human KIR2DL3-IgG-Fc chimera (P43628 22-245, change not shown): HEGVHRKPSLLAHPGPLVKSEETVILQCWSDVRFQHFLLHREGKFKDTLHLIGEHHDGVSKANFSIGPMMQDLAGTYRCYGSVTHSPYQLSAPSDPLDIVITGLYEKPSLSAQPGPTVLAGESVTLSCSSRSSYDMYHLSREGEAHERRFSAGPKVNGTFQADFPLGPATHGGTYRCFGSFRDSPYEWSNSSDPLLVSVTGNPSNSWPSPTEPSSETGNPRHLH

Substance | HLA-C*03:04 stabilization, mean relative fluorescence intensity (RFI) (HLA-C*03:04) | HLA-C*03:04 stabilization, mean relative fluorescence intensity, titration (HLA-C*03:04) | Relative degranulation of KIR2DL3+ NK cells (CD107a) [1] | KIR2DL3+ NK Cell Activity (Mean ± SEM) [1] | Relative degranulation of KIR2DL3− NK cells (CD107a) [2] | KIR2DL3-Fc binding, percent of cells binding KIR2DL3-Fc (KIR2DL3) [%] | KIR2DL3-Fc Binding (Mean ± SD) (KIR2DL3) | HLA-C*03:04 stabilization, mean relative fluorescence intensity (HLA-C*03:04; [4]) | HLA-C*03:04 stabilization, mean relative fluorescence intensity (HLA-C*03:04; 1 μM peptide (non-saturating)) | KIR2DL3 binding (in words) (KIR2DL3; HLA-C*03:04 stabilized at similar levels, used as negative control) | Kd [3]
YVDRFFKVL [TGag303V] | 3.40 ± 0.74 | 2.17 ± 1.36 | 0.63 ± 0.07 | 0.76 ± 0.08 | 1.04 ± 0.05 | 44.67 ± 14.42 | 2.74 ± 0.66 | – | – | – | –
YVDRFFKAL [TGag303A] | 3.17 ± 0.53 | 1.84 ± 0.79 | 0.89 ± 0.05 | 1.36 ± 0.33 | 1.06 ± 0.04 | 15.46 ± 7.24 | 0.90 ± 0.17 | – | – | – | –
RALGPAATL | – | – | – | – | – | – | – | 1.29 ± 0.19 | 2.72 ± 0.81 | – | –
YVDRFFKTL [TGag303] | 3.24 ± 0.64 | 2.60 ± 1.45 | 0.78 ± 0.07 | – | 1.06 ± 0.04 | 18.01 ± 10.45 | – | – | – | – | –
RALGPGATL | – | – | – | – | – | – | – | 2.26 ± 0.39 | 4.24 ± 0.46 | – | –
GAVDPLLKL [GKL, reference compound] | – | – | – | 1.70 ± 0.3 | – | – | 0.06 ± 0.03 | – | – | did not allow for KIR2DL3 binding | –
recombinant human KIR2DL3-IgG-Fc chimera (from UniProt P43628) (Fc fusion) | – | – | – | – | – | – | – | – | – | – | 93 nM and 77 nM
